Reference: ChEMBL document CHEMBL3507680, “University of Dundee, Gates Library screen for HepG2 cell viability”

Test: Human HepG2 cell viability assay in 384 well format
Type: toxicity, cell-based
Parameters: dose 125 nL, time 70.5 hour; cytotoxicity at 70.5 h: concentration not given beside the values
Conditions: HepG2 cells, read-out: Inhibition

Row | SMILES | cytotoxicity at 70.5 h [%]
1 | CCN(Cc1ccc(OC)c(F)c1)Cc1nc2c(cnn2C)c(=O)[nH]1 | -1.49
2 | Cc1nc(NC(=O)CCc2c(C)nc3cc(O)nn3c2C)sc1C | -16.5
3 | CN1CC(Nc2ccc(Br)cc2C#N)CCC1=O (centres undefined) | -0.708
4 | CN1CCN(c2ncccn2)CC1C(N)=O (centres undefined) | 36.7
5 | Cn1ccc2c(NC(=O)Cn3ncc4c(c3=O)CCCC4)cccc21 | 6.85
6 | N[C@H]1CC[C@@H](NC(=O)c2ccc3nc(-c4ccc(F)cc4)cn3c2)CC1 | -14.6
7 | C/C=C(\C)CN1CCCn2nc(CNC(=O)C3CCC3)cc2C1 | -11.6
8 | Cc1ccccc1OCC(=O)N1CCCC(CNS(C)(=O)=O)C1 (centres undefined) | -5.65
9 | O=C1CC(c2cccnc2)c2c(sc3c2CCCC3)N1 (centres undefined) | -3.62
10 | Cc1ncc2c(n1)CN(c1ncnc3[nH]ccc13)CC2 | 1.91
11 | CC(C)CNC(=O)CNC(=O)NC(C)COc1ccccc1F (centres undefined) | -13.5
12 | Cc1oc(CNC(=O)Cc2ccccc2Cl)cc1C(=O)O | -7.56
13 | Cc1cc(C2CCCN(CC(=O)N3CCc4ccccc43)C2)n[nH]1 (centres undefined) | -6.5
14 | O=S(=O)(c1cccs1)N1CCC(c2nc(-c3cccs3)no2)CC1 | 1.6
15 | c1ccc(-n2nnnc2CN2CCCC(Cn3cncn3)C2)cc1 (centres undefined) | -0.367
16 | CSc1ccccc1C(C(=O)O)N(C)CC1CCOCC1 (centres undefined) | 3.4
17 | Cc1nc(CN2CCCC2C(=O)OCc2ccccc2)oc1C (centres undefined) | -10.3
18 | CCCn1cnnc1CNC(=O)CC1C(=O)NCCN1CC=C(C)C (centres undefined) | -0.65
19 | O=C(CN1CCCS1(=O)=O)Nc1ccc(OC2CCCC2)c(Cl)c1 | -0.366
20 | CCCN(CCO)C(=O)C1CCC(=O)N(Cc2ccc(Cl)cc2)C1 (centres undefined) | -0.953
21 | COc1ccc(C(=O)N2CCN(C(=O)CCCc3cn[nH]c3)CC2)cc1 | -5.64
22 | CCn1c(CC2CCN(C(=O)C3CC(C(C)C)=NO3)CC2)nn(C)c1=O (centres undefined) | -6.72
23 | CC(C)N1CC[C@@H]2OC[C@H](C(=O)Nc3cccnc3)C[C@@H]2C1 | 25.1

Row | SMILES | cytotoxicity at 70.5 h [%]
24 | CCOc1ccc(Cl)c(C(=O)N2CCN(CC(C)(C)O)CC2)n1 | -12.6
25 | CCn1nnc2c1C(COC)CN(C(=O)COc1ccccc1)C2 (centres undefined) | 0.105
26 | CN(C)Cc1cnc2n1CCN(C(=O)C1CC=CC1)CC2 | -12.7
27 | CCc1cc(N[C@H]2CC[C@H](O)CC2)n2nc(C)c(C)c2n1 | -0.423
28 | COc1cccc2c1ccn2CCC(=O)N1CCCC(C(=O)O)C1 (centres undefined) | 18.7
29 | O=c1ccncn1Cc1csc(C2CC2)n1 | -3.74
30 | O=C(C1CN(Cc2ccsc2)Cc2ccnn2C1)N1CCCC1 (centres undefined) | 2.84
31 | CC(NC(=O)NCCn1ccnc1)c1ccc2c(c1)NC(=O)CO2 (centres undefined) | -0.375
32 | O=C(c1cccnc1)N1CCC2(CCN(C(=O)N3CCCC3)CC2)C1 | -0.226
33 | O=C(CN1CCCC1c1noc(C2CC2)n1)N1CCc2ccccc21 (centres undefined) | -7.43
34 | COc1cc(C)c(CN2CCc3nc4ccsc4c(=O)n3CC2)cc1C | 0.311
35 | Cc1cccc(CN2CCCC(O)(CNCc3ncccc3C)C2=O)c1 (centres undefined) | -7.55
36 | CNS(=O)(=O)c1cccc(CNc2ncccn2)c1 | -1.46
37 | CCn1cc(CN(C)S(=O)(=O)c2cnn(CC)c2C)c(C)n1 | 5.14
38 | CCn1c(-c2ccccc2)nn(CC(=O)NCCc2ccc(C)s2)c1=O | 13.9
39 | Cc1cc(C[C@@H]2CCC[C@H]2NCc2cc(F)ccc2F)on1 | -1.78
40 | COc1cccc(Nc2nc(C3CCNCC3)c3ccccn23)c1 | -2.27
41 | Cc1occc1C(=O)N1CCC2(CC1)C(c1cnn(C)c1)CC(=O)N2C (centres undefined) | 4.52
42 | Cc1cc(C)n(CC(=O)Nc2cc(-c3ccncc3)[nH]n2)n1 | -4.82
43 | Cc1cccc(C)c1Nc1noc2c1CN(C(=O)c1c[nH]nc1C)CC2 | 12.8
44 | O=C(Cc1c[nH]c2ccccc12)N1CCN(C(=O)c2ccoc2)CC1 | 1.6
45 | Cc1nc(C)n(CC2CCCCN2CC(=O)Nc2nncs2)n1 (centres undefined) | -1.06
46 | CC(=O)NC(C(=O)N(C)Cc1nnc2n1CCC2)C(C)C (centres undefined) | 22.2

Row | SMILES | cytotoxicity at 70.5 h [%]
47 | COCc1cccc(C(=O)N2CCCC2)c1 | 4.08
48 | O=C(NCc1ccccc1F)NC1CCCN(c2ncccn2)C1 (centres undefined) | -4.69
49 | COc1c(CNCCC(=O)NC2CCCCC2)c(C(C)C)nn1C | -0.685
50 | C[C@H](NC(=O)c1cnc(-c2ccccc2)nc1O)C(N)=O | -7.97
51 | CO[C@H]1CCN(c2ncccn2)[C@H]1Cc1ccccc1 | -6.47
52 | NC(=O)CCN(C(=O)c1cccc2c1OCO2)c1ccccc1 | -14
53 | CS(=O)(=O)NCC(=O)NC1(c2ccc(Cl)c(Cl)c2)CC1 | -2.05
54 | Cc1nc[nH]c1CN1CCCC(CNC(=O)c2ccc(N)nc2)C1 (centres undefined) | -6.47
55 | Cc1nc(CN(Cc2cccnc2)Cc2ccsc2)c[nH]1 | 0.327
56 | Cc1nc(C2CCN(C(=O)c3cc(C4CC4)[nH]n3)CC2)no1 | -0.899
57 | c1cncc(COCC2CN(Cc3ccsc3)Cc3ccnn3C2)c1 (centres undefined) | -4.42
58 | CCCc1nnsc1C(=O)N1CCN(CC(C)O)CC1 (centres undefined) | -1.92
59 | CCC1CN(c2cnn(C)c(=O)c2Br)CCO1 (centres undefined) | -1.58
60 | CS(=O)(=O)Cc1nc(CN2CC=C(c3ccccc3)CC2)cs1 | -10.5
61 | O=C(N1CCCO1)[C@@]12CCO[C@@H]1CCN(Cc1ccc(F)cc1)C2 | -1.1
62 | Cc1cc(CN2CCc3nn(C)c(=O)cc3C2)on1 | 3.7
63 | CCCc1nc(C)c(C(=O)Nc2cccc(C)n2)s1 | 23.8
64 | Cc1ccc(C(=O)N2CC(=O)N(Cc3ccco3)CC(O)C2)cc1 (centres undefined) | -2.64
65 | Cc1cc(F)ccc1S(=O)(=O)N(C)CC(N)=O | -6.18
66 | O=C(c1cnccn1)N1CCCC(c2cccc(-n3ccnc3)n2)C1 (centres undefined) | 11.1
67 | COc1ccc(C(=O)N2CCC(c3nccn3C(C)C)CC2)cc1OC | 22.5
68 | CCn1cc(CN2CC3CCCN3C[C@H]2C)c(C)n1 (some centres undefined) | 2.28
69 | Fc1ccccc1CN1CCCC2(CCN(c3ncccn3)C2)C1 (centres undefined) | -9.02

Row | SMILES | cytotoxicity at 70.5 h [%]
70 | CN(CCc1noc(C2CC2)n1)C(=O)CCc1cc2n(n1)CCCNC2 | -9.33
71 | CCN1CCOC(CNCc2ccccc2OCC(=O)N(C)C)C1 (centres undefined) | -4.93
72 | Cn1cnc2c1CCN(Cc1nc(COc3ccc(F)cc3)no1)C2 | 10.6
73 | Fc1cccc(-c2c[nH]c(C3CCCN3)n2)c1 (centres undefined) | 0.492
74 | Cc1ccc(C(=O)N2CCC(c3nccn3C(C)C)CC2)c(=O)[nH]1 | -6.37
75 | COc1cccc(N2CCN(Cc3cccc(CCN)c3)CC2=O)c1 | -6.65
76 | O=C(c1ccco1)N(CC(F)(F)F)C1CCCOC1 (centres undefined) | -2.62
77 | CCc1ccc(CN(CCN(C)C)Cc2ccc(C)s2)nc1 | -5.3
78 | Cc1nc(C)n(Cc2cccc(NC3CCN(C)C3=O)c2)n1 (centres undefined) | -10.6
79 | Cc1cnc(C)c(-c2cc(O)c3c(c2)CN(Cc2nccs2)CCO3)n1 | -4.63
80 | Cc1nc2ccccc2n1Cc1cc(C(=O)N(C)C2CCOCC2)no1 | 12.4
81 | CC(=O)c1c(F)cccc1NC1CCN(S(=O)(=O)C2CC2)CC1 | -6.69
82 | CC1CCCN(Cc2csc(-c3ncccn3)n2)CC1 (centres undefined) | 9.27
83 | Cc1nnc(NC(=O)CN2CCCC2c2c(C)nn(C)c2C)s1 (centres undefined) | 7.87
84 | CC(C)c1nccn1Cc1cc(C(=O)NCC(C)n2ccnc2)n[nH]1 (centres undefined) | -6.98
85 | Cc1nn(Cc2ccc(C(=O)NCCCN3CCCC3=O)o2)c(C)c1Br | -7.69
86 | CC1(C)CC(=O)c2cnc3nc(N4CCCC4)[nH]c(=O)c3c2C1 | -10.4
87 | CNC(=O)C(C)(C)N1CCC[C@H]1C(=O)NCC(C)C | -6.89
88 | CN(CCCN1CCCCCC1)C(=O)c1ccccc1NCC(=O)O | -12.7
89 | CCc1nc(CNc2ccc(-c3nc(C4CC4)no3)cn2)no1 | -9.74
90 | CCc1ccc(S(=O)(=O)Nc2ccc(F)cc2C(=O)O)s1 | 5.89
91 | Cc1ccc(C)c(CC(=O)Nc2cnccc2SCCCO)c1 | 23.5
92 | c1csc(CN2Cc3nccn3CC(Cn3cncn3)C2)n1 (centres undefined) | -7.09

Row | SMILES | cytotoxicity at 70.5 h [%]
93 | Cc1ncsc1C(=O)NCc1cccnc1N(C)CCc1ccccn1 | -5.9
94 | Cc1n[nH]c(SCC(=O)N2C[C@H]3CC[C@@H]2CN(c2ncccn2)C3)n1 | -4.86
95 | CCS(=O)(=O)NC[C@]12COC[C@H]1CN(Cc1cccnc1OC)C2 | -19.9
96 | CC(C)Cc1noc(C2CCCCN2C(=O)CCc2cnn(C)c2)n1 (centres undefined) | -7.69
97 | CS(=O)(=O)NCc1cnc2n1CCN(Cc1ccco1)CC2 | -6.2
98 | COc1cccc(CN2CCC3(CCN(C(=O)[C@H]4CCCO4)CC3)C2)c1 | -4.99
99 | Cc1nn(C)c(N2CCOCC2)c1CNCC1CCCN1C (centres undefined) | -5.73
100 | COCc1cnc2n1CCN(C(=O)c1ocnc1C)C2C (centres undefined) | 10.1
101 | CS(=O)(=O)N1CCN(C(=O)CCC2CCCO2)CC1 (centres undefined) | -14.1
102 | O=C(c1cscn1)N1C[C@H]2CCCC(OCc3cccnc3)[C@H]2C1 (some centres undefined) | -11.5
103 | CCN(C(=O)CN(CC(N)=O)C(C)C)C1=CCCC1 | 22.8
104 | CC(C)(O)CN1CCN(C(=O)c2cc(Cl)cc3cccnc23)CC1 | -11.7
105 | O=C(c1cn2cc(Cl)cnc2n1)N1CCOCC(O)(CN2CCCC2)C1 (centres undefined) | -1.97
106 | CC(=O)c1ccc(N2CCCC(CO)(CCc3ccccc3)C2)nc1 (centres undefined) | -1.42
107 | CCc1nc(C)c(C2CC(=O)Nc3c2c(C(C)(C)C)nn3C)[nH]1 (centres undefined) | 0.46
108 | CNc1ncccc1CN1CCN(C(C)=O)CC(C(N)=O)C1 (centres undefined) | -4.74
109 | CC(CN1CCOC1=O)NC(=O)c1cccc2cc[nH]c12 (centres undefined) | -3.45
110 | CS(=O)(=O)N1CCCC(n2nnn(-c3ccccc3)c2=O)C1 (centres undefined) | -8.01
111 | CC(C)c1nn(CC(=O)N2CCCCC2)c(=O)c2c1cnn2C(C)(C)C | -10.1
112 | COc1c(C)cnc(CSc2nnc(N3CCCC3)s2)c1C | 8.14
113 | COCc1noc(Cn2c(C3CC3)nc3ccccc32)n1 | 21.1
114 | Cn1ccnc1CNc1c(F)cccc1-n1cccn1 | -7.82
